The assay has as its system aRPE-19 human retinal pigmented epithelial cell line. As to the kind of experiment: Activation and deactivation of vector constructs containing luciferase (Nano-Glo luminescence assay). The format is cell-based. The settings on record: luminescence on day 7. On the procedure: ARPE-19 cells were seeded as described above. 12-24 hours later, cells were transfected with pAAV-LTetL-luc and pAAV-LCuL-luc. Media was replaced the next day and doxycycline or cumate was added to a subset of cells (FIG. 7). The media from the cells were assayed for the expression of marker gene, luciferase, using the Nano-Glo Luciferase assay on day 4 after having a media change on day 3. The Nano-Glow luciferase assay was performed as described above.
Following the luciferase assay, media was changed in all the wells. A subset of cells activated with doxycycline and cumate were washed to deactivate the vector.
A human retinal pigmented epithelial cell line (aRPE-19) was transfected with vector constructs containing Tet or Cu regulatory sequences driving the expression of the marker gene luciferase. Twenty-four hours later, the cells were treated with or without Tet or Cu and incubated for a further 48 hours before assessing the expression of luciferase. The ability of the system to stop expression of the transgene (Luciferase) was examined by removing the Tet or Cu from the cells by washing prior to re-examining Luciferase expression. Cells without Tet or Cu were used as a control as were cells where Tet or Cu was not removed.

The text below walks through data of patent US12305185B2, “Expression vector and method” (MOUNT SPEC I[…] LTD, priority 2018, dated 2025).

Regarding `CC(C)c1ccc(C(=O)O)cc1` [Cu, cumate], the “luciferase expression on addition of regulator compound” value (aRPE-19 cells transfected with Tet or Cu regulated luciferase vector) is “able to induce significant levels of luciferase expression”. Further, the “luciferase expression after removal of regulator compound by washing” value (aRPE-19 cells, 3 days of washes) is given as “significantly less luciferase being detected”.
